Literature values, collected in US20070218128A1, “Manufacturing of Quick Release Pharmaceutical Compositions of Water Insoluble Drugs and Pharmaceutical Compositions Obtained By the Process of the Invention” (priority 2004, published 2007).
Like-named read-outs stand apart in the source and are kept apart here.

How the values were obtained:
[1] = approximate values; for pKa1 / pKa2 / pKa3: Table 1 amino acids; for pKa: Table 1 alkaline substances, refer to the pKa of the acid
[2] = for solubility in water and in 0.1 N HCl: water and 0.1 N HCl

## N=C(N)NCCC[C@H](N)C(=O)O [Arginine]
100 g/L H2O
  pH: pH ≈ 11.4
[1]
  pKa1: pKa1: 2.2
  pKa2: pKa2: 9.1
  pKa3: pKa3: 13.2

## NCCCC[C@H](N)C(=O)O [Lysine]
[1]
  pKa1: pKa1: 2.2
  pKa2: pKa2: 8.9

## N[C@@H](Cc1c[nH]cn1)C(=O)O [Histidine]
10 g/L H2O
  pH: pH ≈ 7.7
[1]
  pKa1: pKa1: 1.8
  pKa2: pKa2: 6.0
  pKa3: pKa3: 9.0

## CC(=O)Oc1ccccc1C(=O)O [acetylsalicylic acid]
[2]; room temperature
  solubility in water and in 0.1 N HCl: practically insoluble

## O=C([O-])[O-].[Na+].[Na+] [Di-sodium carbonate]
[1]
  pKa: 10.3

## CN1C(C(=O)Nc2ccccn2)=C(O)c2sc(Cl)cc2S1(=O)=O [lornoxicam]
[2]; 0.1 N HCl
  solubility in 0.1 N HCl: less than 0.1 % w/v
[2]; 0.1 N HCl, room temperature
  solubility at a pH of 0.1 N HCl: less than 1 mg/100 ml

## O=C([O-])/C=C\C(=O)[O-].[Na+].[Na+] [Sodium maleate]
[1]
  pKa: 6.2

## COc1ccc2c3c1O[C@H]1[C@@H](O)C=C[C@H]4[C@@H](C2)N(C)CC[C@@]341 [Codeine, reference compound]
Saturated solution
  pH in saturated solution: solution ≈ 9.8)

## COc1ccc2c(c1)c(CC(=O)O)c(C)n2C(=O)c1ccc(Cl)cc1 [indometacin]
[2]; room temperature
  solubility in water and in 0.1 N HCl: practically insoluble

## O=C([O-])/C=C/C(=O)[O-].[Na+].[Na+] [Sodium fumerate]
[1]
  pKa: 4.4

## NN [Hydrazine]
[1]
  pKa: 8
